Laboratory results as given in BindingDB's records for doi:10.1007/s002100000312 (Biocentre Niederursel, 2000).

Legend:
P2X purinoceptor 2 = biological target: T1, P2X purinoceptor 2 (Rattus norvegicus, UniProt P49653)
T1 sequence (P49653 whole entry): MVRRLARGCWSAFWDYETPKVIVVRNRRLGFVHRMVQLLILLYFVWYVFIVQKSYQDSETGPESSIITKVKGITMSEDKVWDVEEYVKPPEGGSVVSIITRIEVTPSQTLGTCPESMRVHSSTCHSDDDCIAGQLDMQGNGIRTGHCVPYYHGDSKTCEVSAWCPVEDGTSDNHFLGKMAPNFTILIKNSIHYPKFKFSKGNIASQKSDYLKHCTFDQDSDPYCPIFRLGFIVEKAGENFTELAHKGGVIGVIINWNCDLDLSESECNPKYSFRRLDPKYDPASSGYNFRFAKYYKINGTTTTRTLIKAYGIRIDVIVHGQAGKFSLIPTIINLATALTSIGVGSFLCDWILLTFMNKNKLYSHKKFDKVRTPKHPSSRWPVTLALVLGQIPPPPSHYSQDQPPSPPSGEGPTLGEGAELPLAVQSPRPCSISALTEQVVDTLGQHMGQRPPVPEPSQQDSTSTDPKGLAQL

P2X purinoceptor 1 [1] = biological target: T2, P2X purinoceptor 1 (Homo sapiens, UniProt P51575)
T2 sequence (P51575 whole entry): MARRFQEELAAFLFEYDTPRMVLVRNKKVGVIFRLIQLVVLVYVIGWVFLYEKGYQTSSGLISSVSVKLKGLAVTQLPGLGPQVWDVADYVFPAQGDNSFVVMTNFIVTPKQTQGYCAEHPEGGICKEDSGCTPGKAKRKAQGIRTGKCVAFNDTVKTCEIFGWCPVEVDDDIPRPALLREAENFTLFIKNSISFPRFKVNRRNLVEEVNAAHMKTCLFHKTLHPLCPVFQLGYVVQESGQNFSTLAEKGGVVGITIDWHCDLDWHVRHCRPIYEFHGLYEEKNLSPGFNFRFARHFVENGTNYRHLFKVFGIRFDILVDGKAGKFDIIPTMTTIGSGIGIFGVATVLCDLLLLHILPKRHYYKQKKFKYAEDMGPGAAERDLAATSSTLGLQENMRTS

P2X purinoceptor 4 = biological target: T3, P2X purinoceptor 4 (Homo sapiens, UniProt Q99571)
T3 sequence (Q99571 whole entry): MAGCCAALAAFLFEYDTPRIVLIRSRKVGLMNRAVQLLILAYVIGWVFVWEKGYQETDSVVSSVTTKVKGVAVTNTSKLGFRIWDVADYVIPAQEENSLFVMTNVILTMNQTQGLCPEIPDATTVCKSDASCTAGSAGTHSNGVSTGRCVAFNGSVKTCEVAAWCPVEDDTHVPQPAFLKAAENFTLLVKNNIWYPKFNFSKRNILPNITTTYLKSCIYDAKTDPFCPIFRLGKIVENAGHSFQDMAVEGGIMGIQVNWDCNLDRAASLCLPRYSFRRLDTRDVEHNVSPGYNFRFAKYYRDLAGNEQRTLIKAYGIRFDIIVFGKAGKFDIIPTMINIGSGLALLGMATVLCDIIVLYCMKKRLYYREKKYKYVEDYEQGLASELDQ

P2X purinoceptor 1 [2] = biological target: T4, P2X purinoceptor 1 (Rattus norvegicus, UniProt P47824)
T4 sequence (P47824 whole entry): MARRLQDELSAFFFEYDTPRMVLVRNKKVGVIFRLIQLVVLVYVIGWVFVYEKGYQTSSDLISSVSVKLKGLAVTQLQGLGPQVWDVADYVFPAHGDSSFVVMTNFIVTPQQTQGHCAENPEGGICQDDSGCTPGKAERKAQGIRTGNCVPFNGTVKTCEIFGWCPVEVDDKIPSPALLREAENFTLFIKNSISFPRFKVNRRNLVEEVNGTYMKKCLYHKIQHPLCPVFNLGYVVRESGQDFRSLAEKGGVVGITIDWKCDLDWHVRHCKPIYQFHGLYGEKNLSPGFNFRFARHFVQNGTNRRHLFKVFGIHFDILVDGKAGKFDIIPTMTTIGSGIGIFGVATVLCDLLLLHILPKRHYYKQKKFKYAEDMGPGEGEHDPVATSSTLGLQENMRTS

P2X purinoceptor 7 = biological target: T5, P2X purinoceptor 7 (Homo sapiens, UniProt Q99572)
T5 sequence (Q99572 whole entry): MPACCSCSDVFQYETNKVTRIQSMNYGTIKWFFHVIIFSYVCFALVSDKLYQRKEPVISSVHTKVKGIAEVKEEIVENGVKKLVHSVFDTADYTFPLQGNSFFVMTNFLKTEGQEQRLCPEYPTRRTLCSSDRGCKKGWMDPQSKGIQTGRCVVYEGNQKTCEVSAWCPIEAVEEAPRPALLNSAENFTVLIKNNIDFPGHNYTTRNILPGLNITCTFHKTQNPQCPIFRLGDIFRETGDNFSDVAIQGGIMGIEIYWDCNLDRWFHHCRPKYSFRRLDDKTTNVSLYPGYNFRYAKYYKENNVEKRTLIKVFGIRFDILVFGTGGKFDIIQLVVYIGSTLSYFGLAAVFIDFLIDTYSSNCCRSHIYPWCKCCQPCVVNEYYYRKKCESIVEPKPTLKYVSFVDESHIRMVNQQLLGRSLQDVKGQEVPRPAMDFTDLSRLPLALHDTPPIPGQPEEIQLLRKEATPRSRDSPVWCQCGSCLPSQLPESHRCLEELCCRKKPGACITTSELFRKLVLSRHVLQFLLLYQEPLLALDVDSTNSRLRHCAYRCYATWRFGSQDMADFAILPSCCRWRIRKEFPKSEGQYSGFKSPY

P2X purinoceptor 3 = biological target: T6, P2X purinoceptor 3 (Rattus norvegicus, UniProt P49654)
T6 sequence (P49654 whole entry): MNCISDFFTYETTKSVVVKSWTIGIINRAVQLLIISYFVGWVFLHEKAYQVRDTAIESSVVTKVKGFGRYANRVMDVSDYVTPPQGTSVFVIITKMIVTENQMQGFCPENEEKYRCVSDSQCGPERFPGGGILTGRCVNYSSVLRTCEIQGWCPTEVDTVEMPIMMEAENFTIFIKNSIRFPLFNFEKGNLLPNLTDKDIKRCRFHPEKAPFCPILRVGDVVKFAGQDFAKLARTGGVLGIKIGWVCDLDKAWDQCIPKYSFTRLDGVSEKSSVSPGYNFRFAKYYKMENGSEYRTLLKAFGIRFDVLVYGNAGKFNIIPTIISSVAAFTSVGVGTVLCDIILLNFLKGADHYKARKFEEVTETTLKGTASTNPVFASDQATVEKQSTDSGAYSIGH

Ki (P2X purinoceptor 2) [nM] | Ki (P2X purinoceptor 1 [1]) [nM] | Ki (P2X purinoceptor 4) [nM] | Ki (P2X purinoceptor 1 [2]) [nM] | Ki (P2X purinoceptor 7) [nM] | Ki (P2X purinoceptor 3) [nM] | SMILES
> 10000 | 1000 | > 10000 | 1000 | > 10000 | 1000 | O=C(Nc1ccc(C(=O)Nc2ccc(C(=O)Nc3ccc(S(=O)(=O)O)c4cc(S(=O)(=O)O)cc(S(=O)(=O)O)c34)cc2)cc1)Nc1ccc(C(=O)Nc2ccc(C(=O)Nc3ccc(S(=O)(=O)O)c4cc(S(=O)(=O)O)cc(S(=O)(=O)O)c34)cc2)cc1 [CAS_5311315]
> 10000 | – | > 10000 | 1000 | – | 1000 | O=C(Nc1cccc(Nc2ccc(S(=O)(=O)O)c3cc(S(=O)(=O)O)cc(S(=O)(=O)O)c23)c1)Nc1cccc(Nc2ccc(S(=O)(=O)O)c3cc(S(=O)(=O)O)cc(S(=O)(=O)O)c23)c1 [NSC_5311313]
> 10000 | – | 5000 | 50 | – | > 10000 | Cc1ccc(C(=O)Nc2ccc(S(=O)(=O)O)c3cc(S(=O)(=O)O)cc(S(=O)(=O)O)c23)cc1NC(=O)c1cccc(NC(=O)Nc2cccc(C(=O)Nc3cc(C(=O)Nc4ccc(S(=O)(=O)O)c5cc(S(=O)(=O)O)cc(S(=O)(=O)O)c45)ccc3C)c2)c1 [suramin]
